Reference: PubChem BioAssay (NCI)
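Briefly, cells in 96-well plates were exposed to five compound concentrations for 48 h, and endpoints were estimated by linear interpolation. TGI: concentration producing complete growth inhibition.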

Tests used:
Experiment in all cases: NCI tumour cell line growth inhibition, 48 h
NCI-H226 lung = system: NCI-H226 lung
K-562 leukemia = system: K-562 leukemia
UO-31 renal = system: UO-31 renal
MDA-MB-231 breast = system: MDA-MB-231 breast
RPMI-8226 leukemia = system: RPMI-8226 leukemia
COLO 205 colon = system: COLO 205 colon
A498 renal = system: A498 renal
MCF7 breast = system: MCF7 breast
SNB-19 CNS = system: SNB-19 CNS
NCI-H522 lung = system: NCI-H522 lung
M14 melanoma = system: M14 melanoma

Compound | TGI (NCI-H226 lung) [µM] | TGI (K-562 leukemia) [µM] | TGI (UO-31 renal) [µM] | TGI (MDA-MB-231 breast) [µM] | TGI (RPMI-8226 leukemia) [µM] | TGI (COLO 205 colon) [µM] | TGI (A498 renal) [µM] | TGI (MCF7 breast) [µM] | TGI (SNB-19 CNS) [µM] | TGI (NCI-H522 lung) [µM] | TGI (M14 melanoma) [µM]
O=C(NCc1ccccc1)c1c(O)c2ccccc2[nH]c1=O | > 100 | > 100 | > 100 | > 100 | > 100 | > 100 | > 100 | > 100 | > 100 | > 100 | 
C=C(C(=O)OC)[C@H]1CC/C(C)=C/CC/C(C)=C/CC[C@@]2(C)O[C@@H]2C1 | 44.4 | 25.7 | 55 | 33.6 | 32.8 | 28.6 | 62.2 | 37.8 | > 100 | 38.5 | 46.5
O=C(C=P(c1ccccc1)(c1ccccc1)c1ccccc1)c1ccc(-c2ccc(F)cc2F)cc1 | 7.16 | 5.31 | 4.08 | 4.92 | 4.43 | 3.14 | 7.41 | 7.95 | 20.6 |  | 5.76
CC(C)c1nccn1Cc1ccc(Cl)cc1Cl | 93.5 | > 100 | > 100 | > 100 | 57.8 | > 100 | > 100 | > 100 | > 100 | 97.9 | > 100
O=C(Nc1nc(C23CC4CC(CC(C4)C2)C3)cs1)c1cc2cc([N+](=O)[O-])ccc2oc1=O | > 100 | > 100 | > 100 | > 100 | > 100 | > 100 | > 100 | > 100 | > 100 | > 100 | 
O=S(=O)(/N=C1/SC(=Nc2ccccc2)N(c2ccccc2)/C1=N/S(=O)(=O)c1ccccc1)c1ccccc1 | 45.7 | 66.6 | 39.9 | 35.6 | 44.6 | 64.1 | 37.6 | 52.7 | 96.8 |  | 62.8
CC1(O)C(=O)OC2CC([C@]3(O)CCC4[C@@H]5C[C@H]6O[C@]67[C@@H](O)C=CC(=O)[C@]7(C)C5CC[C@@]43C)C1(C)C2 (stereo partly specified) |  | > 31.6 | > 85.3 | 36 | 19.7 | 20.7 | > 100 | > 33 | > 100 | 4.85 | 26.4
Cc1nn(-c2ccccn2)c2c1C(SC#N)=C(C=O)CC2 |  | 39 | 29.1 | 31.9 | 63 | 22.2 | 5.57 | 24.2 | 47.8 | 46 | 31.7
Cn1c(=O)c2sc3cc4c(cc3c2c2ccccc21)sc1c(=O)n(C)c2ccccc2c14 | > 100 |  | > 100 | 36.8 | > 100 | > 100 | > 100 | > 100 |  | > 100 | > 100
CCOC(=O)C1=C(C)N(c2ccc(C)cc2)C2(O)C=CC(=O)C3=C(O)c4ccccc4C(=O)C312 (stereo unspecified) | > 100 |  | 40 | > 100 | 53.5 | > 100 | 67.9 | 63 | 80.2 | 34.7 | > 100
O=C(O)CCCc1ccc2c(c1)CC1(C2)Cc2ccc(CCCC(=O)O)cc2C1 | > 100 | > 100 | > 100 | > 100 | > 100 | > 100 | > 100 | > 100 |  | > 100 | > 100
CN(C)c1ccc(/C=C2\C[C@H]3[C@@H]4CCc5cc(O)ccc5[C@H]4CC[C@]3(C)C2=O)cc1 | 67.3 | > 100 | > 100 | 69 | > 100 | > 100 | > 100 | > 100 | > 100 |  | > 100
COc1cc(S(=O)(=O)N/N=C/c2cc(Br)c(O)c(OC)c2)c(OC)cc1NC(C)=O | > 100 | > 100 | > 100 | > 100 | > 100 | 51.3 | > 100 | > 100 | > 100 |  | > 100
CN(C)C=Nc1nncc2n[nH]nc12 | > 100 | > 100 | > 100 | > 100 | > 100 | > 100 | > 100 | > 100 | > 100 |  | > 100
COC(=O)C1=C(C)NC2(C)OC(C)(O)C(C(C)=O)C12C(C)=O (stereo unspecified) | 53.1 | > 100 |  | > 100 | > 100 | > 100 | > 100 | > 100 | > 100 | > 100 | > 100
CC1(C)CC2(C)OC(=N)C1(C#N)C2(C#N)C#N (stereo unspecified) |  | 33.5 | 16.2 | 21.2 | 23.7 | 14.9 | 28.7 | 24.8 | 31 | 8.38 | 23.8
